Reference: paper PMC4303209, “A novel phosphatidylinositol 3-kinase (PI3K) inhibitor directs a potent FOXO-dependent, p53-independent cell cycle arrest phenotype characterized by the differential induction of a subset of FOXO-regulated genes” (Breast Cancer Research : BCR, 2014)

Test system: MCF-7 breast cancer cells
Experiment: Microarray gene expression analysis (Agilent whole human genome 4 x 44K; compound vs DMSO, LIMMA log2 fold change)
Format: cell-based
Settings: cell cycle genes

`Oc1cccc(-c2nc(N3CCOCC3)c3oc4ncccc4c3n2)c1` [PI-103] was tested, and the “CDC25B log2FC” value (Gene 994) was -0.0551, the “CDC25C log2FC” value (Gene 995) was 1.56 and the “CDC34 log2FC” value (Gene 997) was 0.51. For the same molecule, the “CDC42 log2FC” value (Gene 998) was 0.08, the “CDK2 log2FC” value (Gene 1017) was -0.44 and the “CDK3 log2FC” value (Gene 1018) was -0.00896. The “CDK4 log2FC” value (Gene 1019) was 0.17, the “CDK5 log2FC” value (Gene 1020) was 0.18 and the “CDK7 log2FC” value (Gene 1022) was 0.77. For the same molecule, the “CDKN1A log2FC” value (Gene 1026) was -1.23, the “CDKN1B log2FC” value (Gene 1027) was 1.12 and the “CDKN1C log2FC” value (Gene 1028) was 0.88. The “CDKN2A log2FC” value (Gene 1029) was 0.30, the “CDKN2D log2FC” value (Gene 1032) was 0.90 and the “CDKN3 log2FC” value (Gene 1033) was 0.04. For the same molecule, the “CENPA log2FC” value (Gene 1058) was 0.29, the “CENPE log2FC” value (Gene 1062) was 1.00 and the “CENPF log2FC” value (Gene 1063) was 1.50. The “CETN2 log2FC” value (Gene 1069) was 0.12, the “CHD3 log2FC” value (Gene 1107) was -0.15 and the “CHEK1 log2FC” value (Gene 1111) was 0.38. The “CKS1B log2FC” value (Gene 1163) was 0.12, the “CKS2 log2FC” value (Gene 1164) was -0.62 and the “CLTC log2FC” value (Gene 1213) was 0.15. The “PLK3 log2FC” value (Gene 1263) was -1.59, the “ATF2 log2FC” value (Gene 1386) was 0.88 and the “CREBL2 log2FC” value (Gene 1389) was 0.85. The “MAPK14 log2FC” value (Gene 1432) was -0.30, the “CSNK1A1 log2FC” value (Gene 1452) was -0.04 and the “CSNK1D log2FC” value (Gene 1453) was -0.30. The “CSNK1E log2FC” value (Gene 1454) was -0.52, the “CSNK2A1 log2FC” value (Gene 1457) was -0.65 and the “CTBP1 log2FC” value (Gene 1487) was -0.24. The “CTGF log2FC” value (Gene 1490) was -0.35, the “CYLD log2FC” value (Gene 1540) was 0.38 and the “CYP27B1 log2FC” value (Gene 1594) was -0.17. For the same molecule, the “DAPK3 log2FC” value (Gene 1613) was -0.075, the “DDB1 log2FC” value (Gene 1642) was 0.26 and the “DDIT3 log2FC” value (Gene 1649) was 2.08. The “DDX3X log2FC” value (Gene 1654) was -1.13, the “DHCR24 log2FC” value (Gene 1718) was -0.73 and the “DHFR log2FC” value (Gene 1719) was 0.49. The “DLG1 log2FC” value (Gene 1739) was 0.12, the “DMRT1 log2FC” value (Gene 1761) was 0.0553 and the “DYNC1I2 log2FC” value (Gene 1781) was 0.63. The “DNM2 log2FC” value (Gene 1785) was 0.27, the “DRD3 log2FC” value (Gene 1814) was -0.0531 and the “DUSP1 log2FC” value (Gene 1843) was -0.80. The “DUSP3 log2FC” value (Gene 1845) was 0.48, the “DYRK1A log2FC” value (Gene 1859) was 0.34 and the “E2F1 log2FC” value (Gene 1869) was -0.12. For the same molecule, the “E2F2 log2FC” value (Gene 1870) was -0.38, the “E2F3 log2FC” value (Gene 1871) was -0.42 and the “E2F4 log2FC” value (Gene 1874) was -0.66. For the same molecule, the “E2F5 log2FC” value (Gene 1875) was 0.15, the “E2F6 log2FC” value (Gene 1876) was -0.52 and the “E4F1 log2FC” value (Gene 1877) was 0.31. The “ECT2 log2FC” value (Gene 1894) was 0.84, the “EDN3 log2FC” value (Gene 1908) was -0.022 and the “EGF log2FC” value (Gene 1950) was -0.01. The “EGFR log2FC” value (Gene 1956) was 0.48, the “EIF4EBP1 log2FC” value (Gene 1978) was 0.0433 and the “EIF4G2 log2FC” value (Gene 1982) was -0.10. For the same molecule, the “EMD log2FC” value (Gene 2010) was -0.12, the “ENSA log2FC” value (Gene 2029) was -0.0565 and the “EPS8 log2FC” value (Gene 2059) was 0.46. The “ERCC2 log2FC” value (Gene 2068) was -0.27, the “ERCC3 log2FC” value (Gene 2071) was -0.11 and the “ERCC4 log2FC” value (Gene 2072) was 0.06. For the same molecule, the “ERF log2FC” value (Gene 2077) was 0.40, the “ERH log2FC” value (Gene 2079) was -0.38 and the “ERN1 log2FC” value (Gene 2081) was -0.11. For the same molecule, the “ETS1 log2FC” value (Gene 2113) was -0.82, the “EZH2 log2FC” value (Gene 2146) was 0.46 and the “FANCG log2FC” value (Gene 2189) was 0.0225. The “FEN1 log2FC” value (Gene 2237) was -1.06, the “FER log2FC” value (Gene 2241) was 0.26 and the “FGF2 log2FC” value (Gene 2247) was 0.18. For the same molecule, the “FGF8 log2FC” value (Gene 2253) was -0.13, the “FGF10 log2FC” value (Gene 2255) was -0.00185 and the “FGFR1 log2FC” value (Gene 2260) was -0.37. The “FGFR3 log2FC” value (Gene 2261) was -0.16, the “FGFR2 log2FC” value (Gene 2263) was 1.81 and the “FHL1 log2FC” value (Gene 2273) was -0.0644. The “FOXC1 log2FC” value (Gene 2296) was -0.77, the “FOXM1 log2FC” value (Gene 2305) was -0.022 and the “FLNA log2FC” value (Gene 2316) was -0.0267. For the same molecule, the “FNTB log2FC” value (Gene 2342) was -0.45, the “GAS1 log2FC” value (Gene 2619) was 0.76 and the “GAS2 log2FC” value (Gene 2620) was 0.15. The “GAS6 log2FC” value (Gene 2621) was -0.10, the “GFI1 log2FC” value (Gene 2672) was 0.03 and the “GNAI1 log2FC” value (Gene 2770) was 1.07. The “GNAI2 log2FC” value (Gene 2771) was -0.26, the “GNAI3 log2FC” value (Gene 2773) was 0.53 and the “SFN log2FC” value (Gene 2810) was -1.15. The “GPR3 log2FC” value (Gene 2827) was -0.30, the “GPS1 log2FC” value (Gene 2873) was 0.025 and the “GPS2 log2FC” value (Gene 2874) was 0.19. The “GSK3B log2FC” value (Gene 2932) was -0.45, the “GSPT1 log2FC” value (Gene 2935) was -0.35 and the “MSH6 log2FC” value (Gene 2956) was -0.0751. For the same molecule, the “GTF2H1 log2FC” value (Gene 2965) was 0.32, the “H2AFX log2FC” value (Gene 3014) was -0.94 and the “HCFC1 log2FC” value (Gene 3054) was -0.62. The “HDAC1 log2FC” value (Gene 3065) was -0.55, the “HDAC2 log2FC” value (Gene 3066) was 0.06 and the “HGF log2FC” value (Gene 3082) was -0.20. The “HHEX log2FC” value (Gene 3087) was -0.29, the “FOXA1 log2FC” value (Gene 3169) was 0.13 and the “HOXA13 log2FC” value (Gene 3209) was 0.04. The “HRAS log2FC” value (Gene 3265) was -0.76, the “PRMT2 log2FC” value (Gene 3275) was 0.29 and the “HES1 log2FC” value (Gene 3280) was -1.26. For the same molecule, the “HSF1 log2FC” value (Gene 3297) was 0.25, the “HSPA2 log2FC” value (Gene 3306) was -1.30 and the “HSP90AA1 log2FC” value (Gene 3320) was 0.72. For the same molecule, the “ID2 log2FC” value (Gene 3398) was 1.14, the “ID3 log2FC” value (Gene 3399) was -0.08 and the “IFNG log2FC” value (Gene 3458) was -0.04. The “IGF1 log2FC” value (Gene 3479) was 0.05, the “IGF1R log2FC” value (Gene 3480) was 0.08 and the “IGF2 log2FC” value (Gene 3481) was 0.0241. The “IL1A log2FC” value (Gene 3552) was -0.07, the “IL1B log2FC” value (Gene 3553) was 0.035 and the “IL8 log2FC” value (Gene 3576) was -1.30. The “IL12B log2FC” value (Gene 3593) was -0.0227, the “ILF3 log2FC” value (Gene 3609) was -0.47 and the “ILK log2FC” value (Gene 3611) was -0.0473. For the same molecule, the “INCENP log2FC” value (Gene 3619) was 0.13, the “ING2 log2FC” value (Gene 3622) was 0.26 and the “INHA log2FC” value (Gene 3623) was -0.06. The “INSM1 log2FC” value (Gene 3642) was -0.06, the “INSR log2FC” value (Gene 3643) was 0.74 and the “IRF6 log2FC” value (Gene 3664) was 0.56. For the same molecule, the “ITGB1 log2FC” value (Gene 3688) was 0.58, the “JUN log2FC” value (Gene 3725) was -0.94 and the “JUNB log2FC” value (Gene 3726) was -0.65. For the same molecule, the “KIF11 log2FC” value (Gene 3832) was 0.83, the “KRT18 log2FC” value (Gene 3875) was -0.44 and the “STMN1 log2FC” value (Gene 3925) was 0.33. For the same molecule, the “LIF log2FC” value (Gene 3976) was -1.84, the “LIG1 log2FC” value (Gene 3978) was 0.0377 and the “LIG3 log2FC” value (Gene 3980) was -0.50. For the same molecule, the “LLGL2 log2FC” value (Gene 3993) was -0.0661, the “LRP5 log2FC” value (Gene 4041) was -0.40 and the “MAD2L1 log2FC” value (Gene 4085) was -0.14. The “SMAD3 log2FC” value (Gene 4088) was 0.24, the “MCM3 log2FC” value (Gene 4172) was 0.0559 and the “MCM5 log2FC” value (Gene 4174) was 0.04. The “MCM7 log2FC” value (Gene 4176) was 0.08, the “MDM2 log2FC” value (Gene 4193) was -0.11 and the “MDM4 log2FC” value (Gene 4194) was -0.14. The “RAB8A log2FC” value (Gene 4218) was -0.76, the “MIF log2FC” value (Gene 4282) was 0.23 and the “MKI67 log2FC” value (Gene 4288) was 0.06.
